Measurements as given in the NIST ThermoML archive (doi:10.1016/j.jct.2011.11.014).
± gives the expanded uncertainty stated by the source.

Test: mn = molality of the nth substance listed, in mol/kg
Settings: 101.3 kPa, Liquid; for speed of sound: Sing-around technique in a fixed-path interferometer; for mass density: Vibrating tube method

CCOC(=O)CC(=O)[O-].[K+] [potassium 3-ethoxy-3-oxopropanoate] + O
Settings	mass density [kg/m3]	speed of sound [m/s]
288.15 K, m1 = 0.0116	999.92 ± 2	1468.2 ± 2.2
288.15 K, m1 = 0.0175	1000.34 ± 2	1469 ± 2.2
288.15 K, m1 = 0.0352	1001.57 ± 2	1471.2 ± 2.2
288.15 K, m1 = 0.0453	1002.29 ± 2	1472.6 ± 2.2
288.15 K, m1 = 0.0579	1003.14 ± 2	1474.2 ± 2.2
288.15 K, m1 = 0.1204	1007.45 ± 2	1482.2 ± 2.2
288.15 K, m1 = 0.18	1011.47 ± 2	1489.7 ± 2.2
288.15 K, m1 = 0.2369	1015.22 ± 2	1496.6 ± 2.2
288.15 K, m1 = 0.3076	1019.83 ± 2	1505.1 ± 2.2
293.15 K, m1 = 0.0116	999.013 ± 2	1484.1 ± 2.2
293.15 K, m1 = 0.0175	999.423 ± 2	1484.9 ± 2.2
293.15 K, m1 = 0.0352	1000.64 ± 2	1487 ± 2.2
293.15 K, m1 = 0.0453	1001.35 ± 2	1488.3 ± 2.2
293.15 K, m1 = 0.0579	1002.19 ± 2	1489.8 ± 2.2
293.15 K, m1 = 0.1204	1006.44 ± 2	1497.2 ± 2.2
293.15 K, m1 = 0.18	1010.41 ± 2	1504.2 ± 2.2
293.15 K, m1 = 0.2369	1014.11 ± 2	1510.6 ± 2.2
293.15 K, m1 = 0.3076	1018.65 ± 2	1518.7 ± 2.2
298.15 K, m1 = 0.0116	997.84 ± 2	1498.2 ± 2.2
298.15 K, m1 = 0.0175	998.247 ± 2	1499 ± 2.2
298.15 K, m1 = 0.0352	999.442 ± 2	1500.9 ± 2.2
298.15 K, m1 = 0.0453	1000.15 ± 2	1502.1 ± 2.2
298.15 K, m1 = 0.0579	1000.98 ± 2	1503.5 ± 2.2
298.15 K, m1 = 0.1204	1005.18 ± 2	1510.4 ± 2.2
298.15 K, m1 = 0.18	1009.1 ± 2	1516.9 ± 2.2
298.15 K, m1 = 0.2369	1012.76 ± 2	1523 ± 2.2
298.15 K, m1 = 0.3076	1017.25 ± 2	1530.5 ± 2.2
303.15 K, m1 = 0.0116	996.433 ± 2	1510.5 ± 2.2
303.15 K, m1 = 0.0175	996.835 ± 2	1511.2 ± 2.2
303.15 K, m1 = 0.0352	998.02 ± 2	1513 ± 2.2
303.15 K, m1 = 0.0453	998.716 ± 2	1514.1 ± 2.2
303.15 K, m1 = 0.0579	999.538 ± 2	1515.4 ± 2.2
303.15 K, m1 = 0.1204	1003.7 ± 2	1521.9 ± 2.2
303.15 K, m1 = 0.18	1007.58 ± 2	1528 ± 2.2
303.15 K, m1 = 0.2369	1011.19 ± 2	1533.6 ± 2.2
303.15 K, m1 = 0.3076	1015.64 ± 2	1540.6 ± 2.2
308.15 K, m1 = 0.0116	994.811 ± 2	1521 ± 2.2
308.15 K, m1 = 0.0175	995.206 ± 2	1521.7 ± 2.2
308.15 K, m1 = 0.0352	996.379 ± 2	1523.4 ± 2.2
308.15 K, m1 = 0.0453	997.071 ± 2	1524.4 ± 2.2
308.15 K, m1 = 0.0579	997.885 ± 2	1525.7 ± 2.2
308.15 K, m1 = 0.1204	1002 ± 2	1531.8 ± 2.2
308.15 K, m1 = 0.18	1005.85 ± 2	1537.4 ± 2.2
308.15 K, m1 = 0.2369	1009.43 ± 2	1542.7 ± 2.2
308.15 K, m1 = 0.3076	1013.83 ± 2	1549.1 ± 2.2
313.15 K, m1 = 0.0116	992.986 ± 2	1530 ± 2.1
313.15 K, m1 = 0.0175	993.379 ± 2	1530.7 ± 2.1
313.15 K, m1 = 0.0352	994.542 ± 2	1532.2 ± 2.1
313.15 K, m1 = 0.0453	995.228 ± 2	1533.2 ± 2.1
313.15 K, m1 = 0.0579	996.034 ± 2	1534.4 ± 2.1
313.15 K, m1 = 0.1204	1000.12 ± 2	1540.1 ± 2.1
313.15 K, m1 = 0.18	1003.93 ± 2	1545.4 ± 2.1
313.15 K, m1 = 0.2369	1007.47 ± 2	1550.3 ± 2.1
313.15 K, m1 = 0.3076	1011.84 ± 2	1556.3 ± 2.2

COC(=O)CC(=O)[O-].[K+] [potassium 3-methoxy-3-oxopropanoate] + O
Settings	mass density [kg/m3]	speed of sound [m/s]
288.15 K, m1 = 0.0128	1000.03 ± 0.14	1468.1 ± 2.2
288.15 K, m1 = 0.0148	1000.18 ± 0.13	1468.3 ± 2.2
288.15 K, m1 = 0.0189	1000.47 ± 0.13	1468.8 ± 2.2
288.15 K, m1 = 0.0253	1000.94 ± 0.13	1469.6 ± 2.2
288.15 K, m1 = 0.0316	1001.39 ± 0.13	1470.3 ± 2.2
288.15 K, m1 = 0.0444	1002.3 ± 0.13	1471.8 ± 2.2
288.15 K, m1 = 0.0512	1002.81 ± 0.13	1472.4 ± 2.2
288.15 K, m1 = 0.0637	1003.7 ± 0.13	1474 ± 2.2
288.15 K, m1 = 0.0836	1005.11 ± 0.14	1476 ± 2.2
288.15 K, m1 = 0.1286	1008.32 ± 0.14	1481.1 ± 2.2
288.15 K, m1 = 0.1868	1012.39 ± 0.14	1487.4 ± 2.2
288.15 K, m1 = 0.2644	1017.68 ± 0.14	1495.4 ± 2.2
288.15 K, m1 = 0.3285	1022.02 ± 0.14	1502.2 ± 2.2
288.15 K, m1 = 0.3591	1024 ± 0.14	1505 ± 2.2
293.15 K, m1 = 0.0128	999.122 ± 0.17	1484 ± 2.2
293.15 K, m1 = 0.0148	999.272 ± 0.14	1484.2 ± 2.2
293.15 K, m1 = 0.0189	999.553 ± 0.14	1484.7 ± 2.2
293.15 K, m1 = 0.0253	1000.02 ± 0.14	1485.4 ± 2.2
293.15 K, m1 = 0.0316	1000.47 ± 0.14	1486.1 ± 2.2
293.15 K, m1 = 0.0444	1001.37 ± 0.13	1487.4 ± 2.2
293.15 K, m1 = 0.0512	1001.87 ± 0.14	1488.2 ± 2.2
293.15 K, m1 = 0.0637	1002.74 ± 0.14	1489.5 ± 2.2
293.15 K, m1 = 0.0836	1004.14 ± 0.14	1491.5 ± 2.2
293.15 K, m1 = 0.1286	1007.31 ± 0.14	1496.2 ± 2.2
293.15 K, m1 = 0.1868	1011.34 ± 0.14	1502 ± 2.2
293.15 K, m1 = 0.2644	1016.57 ± 0.14	1509.6 ± 2.2
293.15 K, m1 = 0.3285	1020.84 ± 0.14	1516.1 ± 2.2
293.15 K, m1 = 0.3591	1022.81 ± 0.14	1518.6 ± 2.2
298.15 K, m1 = 0.0128	997.951 ± 0.16	1498.1 ± 2.2
298.15 K, m1 = 0.0148	998.099 ± 0.14	1498.4 ± 2.2
298.15 K, m1 = 0.0189	998.377 ± 0.14	1498.8 ± 2.2
298.15 K, m1 = 0.0253	998.84 ± 0.14	1499.4 ± 2.2
298.15 K, m1 = 0.0316	999.281 ± 0.14	1500.1 ± 2.2
298.15 K, m1 = 0.0444	1000.17 ± 0.14	1501.3 ± 2.2
298.15 K, m1 = 0.0512	1000.67 ± 0.14	1502 ± 2.2
298.15 K, m1 = 0.0637	1001.53 ± 0.14	1503.3 ± 2.2
298.15 K, m1 = 0.0836	1002.91 ± 0.14	1505.1 ± 2.2
298.15 K, m1 = 0.1286	1006.05 ± 0.14	1509.5 ± 2.2
298.15 K, m1 = 0.1868	1010.04 ± 0.14	1514.9 ± 2.2
298.15 K, m1 = 0.2644	1015.21 ± 0.14	1522.1 ± 2.2
298.15 K, m1 = 0.3285	1019.45 ± 0.14	1528 ± 2.2
298.15 K, m1 = 0.3591	1021.39 ± 0.14	1530.5 ± 2.2
303.15 K, m1 = 0.0128	996.543 ± 0.17	1510.4 ± 2.2
303.15 K, m1 = 0.0148	996.691 ± 0.14	1510.6 ± 2.2
303.15 K, m1 = 0.0189	996.967 ± 0.14	1511 ± 2.2
303.15 K, m1 = 0.0253	997.423 ± 0.14	1511.6 ± 2.2
303.15 K, m1 = 0.0316	997.862 ± 0.14	1512.2 ± 2.2
303.15 K, m1 = 0.0444	998.743 ± 0.14	1513.3 ± 2.2
303.15 K, m1 = 0.0512	999.236 ± 0.14	1514 ± 2.2
303.15 K, m1 = 0.0637	1000.1 ± 0.14	1515.2 ± 2.2
303.15 K, m1 = 0.0836	1001.46 ± 0.14	1517 ± 2.2
303.15 K, m1 = 0.1286	1004.57 ± 0.14	1521.1 ± 2.2
303.15 K, m1 = 0.1868	1008.52 ± 0.14	1526.2 ± 2.2
303.15 K, m1 = 0.2644	1013.64 ± 0.14	1532.9 ± 2.2
303.15 K, m1 = 0.3285	1017.84 ± 0.15	1538.5 ± 2.2
303.15 K, m1 = 0.3591	1019.76 ± 0.14	1540.8 ± 2.2
308.15 K, m1 = 0.0128	994.92 ± 0.17	1520.9 ± 2.2
308.15 K, m1 = 0.0148	995.066 ± 0.15	1521.2 ± 2.2
308.15 K, m1 = 0.0189	995.341 ± 0.15	1521.5 ± 2.2
308.15 K, m1 = 0.0253	995.793 ± 0.14	1522.1 ± 2.2
308.15 K, m1 = 0.0316	996.226 ± 0.14	1522.7 ± 2.2
308.15 K, m1 = 0.0444	997.101 ± 0.14	1523.7 ± 2.2
308.15 K, m1 = 0.0512	997.589 ± 0.15	1524.4 ± 2.2
308.15 K, m1 = 0.0637	998.449 ± 0.14	1525.5 ± 2.2
308.15 K, m1 = 0.0836	999.794 ± 0.14	1527.1 ± 2.2
308.15 K, m1 = 0.1286	1002.88 ± 0.15	1531 ± 2.2
308.15 K, m1 = 0.1868	1006.79 ± 0.15	1535.8 ± 2.2
308.15 K, m1 = 0.2644	1011.88 ± 0.15	1542.1 ± 2.2
308.15 K, m1 = 0.3285	1016.04 ± 0.15	1547.4 ± 2.2
308.15 K, m1 = 0.3591	1017.95 ± 0.15	1549.5 ± 2.2
313.15 K, m1 = 0.0128	993.096 ± 0.15	1530 ± 2.1
313.15 K, m1 = 0.0148	993.243 ± 0.15	1530.2 ± 2.1
313.15 K, m1 = 0.0189	993.515 ± 0.15	1530.5 ± 2.1
313.15 K, m1 = 0.0253	993.962 ± 0.15	1531.1 ± 2.1
313.15 K, m1 = 0.0316	994.391 ± 0.15	1531.6 ± 2.1
313.15 K, m1 = 0.0444	995.26 ± 0.15	1532.6 ± 2.1
313.15 K, m1 = 0.0512	995.745 ± 0.15	1533.2 ± 2.1
313.15 K, m1 = 0.0637	996.599 ± 0.15	1534.3 ± 2.1
313.15 K, m1 = 0.0836	997.933 ± 0.15	1535.8 ± 2.1
313.15 K, m1 = 0.1286	1001 ± 0.15	1539.5 ± 2.1
313.15 K, m1 = 0.1868	1004.88 ± 0.15	1543.9 ± 2.1
313.15 K, m1 = 0.2644	1009.93 ± 0.15	1549.9 ± 2.2
313.15 K, m1 = 0.3285	1014.06 ± 0.15	1554.9 ± 2.2
313.15 K, m1 = 0.3591	1015.96 ± 0.15	1556.8 ± 2.2
